Where two headings read alike, the source gives them in different places.
Assays:
JAK1 = JAK1 (Homo sapiens (Human), UniProt P23458); experiment: Jak Biochemical HTRF Assay (JAK1); conditions: recombinant GST-tagged catalytic domain, [ATP] 31.8 μM, unit not given (compound concentrations tested given in nM)
Source text: Jak Biochemical HTRF Assay Protocol
Subsequent reagent additions employed an Agilent Bravo.

JAK2 = JAK2 (Homo sapiens (Human), UniProt O60674); experiment: Jak Biochemical HTRF Assay (JAK2)
Sequence of JAK2 (O60674 849-1124): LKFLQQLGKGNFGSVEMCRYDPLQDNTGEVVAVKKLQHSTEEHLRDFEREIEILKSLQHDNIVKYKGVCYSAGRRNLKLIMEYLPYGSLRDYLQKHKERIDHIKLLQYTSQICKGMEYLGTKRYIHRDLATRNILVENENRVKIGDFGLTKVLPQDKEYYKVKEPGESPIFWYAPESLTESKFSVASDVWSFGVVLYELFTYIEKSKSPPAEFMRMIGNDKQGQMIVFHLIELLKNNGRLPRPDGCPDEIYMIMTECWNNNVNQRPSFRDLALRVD
Procedure: The ability of compounds to inhibit the activity of JAK1, JAK2, JAK3, and TYK2 was measured using a recombinant purified GST-tagged catalytic domain for each enzyme (Invitrogen JAK1 #M4290, JAK2 #M4290, JAK3 #M4290, TYK2 #M4290) in an HTRF format biochemical assay. […] Subsequent reagent additions employed an Agilent Bravo. […] After equilibration, 2 μL of 10×ATP in 1× assay buffer was added to initiate the kinase reaction and the plates were shaken and then incubated at room temperature for 120 minutes. […] After normalization to untreated controls, the percent inhibition of the HTRF signal at each compound concentration was calculated. The plot of percent inhibition versus the log of compound concentration was fit with a 4-parameter dose response equation to calculate IC50 values.
Final reaction conditions were:

[1] = JAK2 IC50, recombinant GST-tagged catalytic domain, [ATP] 8.5 μM, unit not given (compound concentrations tested given in nM)
[2] = read-out: JAK2 IC50, recombinant GST-tagged catalytic domain, [ATP] 8.5 μM, unit not given (compound concentrations tested given in nM)

Sequence of JAK1 (P23458 875-1153): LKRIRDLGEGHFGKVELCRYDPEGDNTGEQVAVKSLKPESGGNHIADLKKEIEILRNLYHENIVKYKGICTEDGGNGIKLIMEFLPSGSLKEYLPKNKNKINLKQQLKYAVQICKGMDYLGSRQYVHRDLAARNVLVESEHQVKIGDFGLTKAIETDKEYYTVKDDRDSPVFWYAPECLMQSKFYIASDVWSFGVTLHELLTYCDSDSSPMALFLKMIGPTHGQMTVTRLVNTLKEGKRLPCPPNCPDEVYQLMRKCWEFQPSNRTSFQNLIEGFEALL

SMILES	IC50 (JAK1) [nM]	IC50 (JAK2; [1]) [nM]	IC50 (JAK2; [2]) [nM]
CC1CCCN1C(c1ccc(Nc2nn([C@H]3COCC[C@@H]3C#N)c3cc[nH]c(=O)c23)cc1)C(F)(F)F (single isomer, unassigned) [Example 1-86, (3R,4S)-3-{4-oxo-3-[(4-{(1R or 1S)-2,2,2-trifluoro-1-[(2S or 2R)-2-methylpyrrolidin-1-yl]ethyl}phenyl)amino]-4,5-dihydro-1H-pyrazolo[4,3-c]pyridin-1-yl}tetrahydro-2H-pyran-4-carbonitrile]	0.15	0.23	–
CC(C)(C)CNC(c1ccc(Nc2nn([C@H]3COCC[C@@H]3C#N)c3cc[nH]c(=O)c23)cc1)C(F)(F)F (single isomer, unassigned) [Example 1-83, (3R,4S)-3-{3-[(4-{(1R or 1S)-1-[(2,2-dimethylpropyl)amino]-2,2,2-trifluoroethyl}phenyl)amino]-4-oxo-4,5-dihydro-1H-pyrazolo[4,3-c]pyridin-1-yl} tetrahydro-2H-pyran-4-carbonitrile]	0.5	1.06	–
N#C[C@H]1CCOC[C@@H]1n1nc(Nc2ccc(C(N)C(F)(F)F)cc2)c2c(=O)[nH]ccc21 (single isomer, unassigned) [Example 1-9, (3R,4S)-3-(3-((4-((S or R)-1-amino-2,2,2-trifluoroethyl)phenyl)amino)-4-oxo-4,5-dihydro-1H-pyrazolo[4,3-c]pyridin-1-yl)tetrahydro-2H-pyran-4-carbonitrile]	0.09	0.29	–
COC(=N)c1cc(Nc2nn([C@H]3COCC[C@@H]3C#N)c3cc[nH]c(=O)c23)ccc1O [Example 1-16, methyl 5-({1-[(3R,4S)-4-cyanotetrahydro-2H-pyran-3-yl]-4-oxo-4,5-dihydro-1H-pyrazolo[4,3-c]pyridin-3-yl}amino)-2-hydroxybenzenecarboximidoate]	0.36	–	5.04
CN(C)C(c1ccc(Nc2nn([C@H]3COCC[C@@H]3C#N)c3cc[nH]c(=O)c23)cc1)C(F)(F)F (single isomer, unassigned) [Example 1-18, (3R,4S)-3-[3-({4-[(1R, or 1S)-1-(dimethylamino)-2,2,2-trifluoroethyl]phenyl}amino)-4-oxo-4,5-dihydro-1H-pyrazolo[4,3-c]pyridin-1-yl]tetrahydro-2H-pyran-4-carbonitrile]	0.07	0.13	–
CC(C)NC(c1ccc(Nc2nn([C@H]3COCC[C@@H]3C#N)c3cc[nH]c(=O)c23)cc1)C(F)(F)F (single isomer, unassigned) [Example 1-53, (3R,4S)-3-{4-oxo-3-[(4-{[1S or 1R)-2,2,2-trifluoro-[(1-methylethyl)amino]ethyl}phenyl)amino]-4,5-dihydro-1H-pyrazolo[4,3-c]pyridin-1-yl}tetrahydro-2H-pyran-4-carbonitrile]	0.08	0.09	–
N#C[C@H]1CCOC[C@@H]1n1nc(Nc2ccc(C3(C(F)(F)F)CCCCN3)cc2)c2c(=O)[nH]ccc21 (single isomer, unassigned) [Example 2-8, (3R,4S)-3-[4-oxo-3-({4-[(2R or 2S)-2-(trifluoromethyl)piperidin-2-yl]phenyl}amino)-4,5-dihydro-1H-pyrazolo[4,3-c]pyridin-1-yl] tetrahydro-2H-pyran-4-carbonitrile]	0.05	0.05	–
CC(C)NC1(C)C(=O)Nc2cc(Nc3nn(C4COCC[C@@H]4C#N)c4cc[nH]c(=O)c34)ccc21 (single isomer, unassigned) [Example 1-101, (3R,4S)-3-[3-({(3S or 3R)-3-methyl-3-[(1-methylethyl)amino]-2-oxo-2,3-dihydro-1H-indol-6-yl}amino)-4-oxo-4,5-dihydro-1H-pyrazolo[4,3-c]pyridin-1-yl] tetrahydro-2H-pyran-4-carbonitrile]	0.07	–	0.05
CC(C)NC(c1ccc(Nc2nn([C@H]3COCC[C@@H]3C#N)c3cc[nH]c(=O)c23)cc1)C(F)(F)F (single isomer, unassigned) [Example 1-52, (3R,4S)-3-{4-oxo-3-[(4-{(1R or 1S)-2,2,2-trifluoro-1-[(1-methylethyl)amino]ethyl}phenyl)amino]-4,5-dihydro-1H-pyrazolo[4,3-c]pyridin-1-yl}tetrahydro-2H-pyran-4-carbonitrile]	0.08	0.11	–
N#C[C@H]1CCOC[C@@H]1n1nc(Nc2ccc(S(=O)(=O)N3CCC3)cc2)c2c(=O)[nH]ccc21 [Example 1-69, (3R,4S)-3-(3-{[4-(azetidin-1-ylsulfonyl)phenyl]amino}-4-oxo-4,5-dihydro-1H-pyrazolo[4,3-c]pyridin-1-yl)tetrahydro-2H-pyran-4-carbonitrile]	0.08	–	0.3
CS(=O)(=O)c1ccc(Nc2nn([C@@H]3COCC[C@H]3C#N)c3cc[nH]c(=O)c23)cc1 [Example 1-1, (3S,4R)-3-(3-((4-(methylsulfonyl)phenyl)amino)-4-oxo-4,5-dihydro-1H-pyrazolo[4,3-c]pyridin-1-yl)tetrahydro-2H-pyran-4-carbonitrile]	7.06	–	11.5
N#C[C@H]1CCOCC1n1nc(Nc2ccc(C(O)(c3ccncc3)C(F)(F)F)cc2)c2c(=O)[nH]ccc21 (single isomer, unassigned) [Example 1-95, (3R,4S)-3-(4-oxo-3-((4-((S or R)-2,2,2-trifluoro-1-hydroxy-1-(pyridin-4-yl)ethyl)phenyl)amino)-4,5-dihydro-1H-pyrazolo[4,3-c]pyridin-1-yl)tetrahydro-2H-pyran-4-carbonitrile]	0.06	0.09	–
CC(C)S(=O)(=O)c1ccc(Nc2nn([C@H]3COCC[C@@H]3C#N)c3cc[nH]c(=O)c23)cc1 [Example 1-11, (3R,4S)-3-(3-((4-(isopropylsulfonyl)phenyl)amino)-4-oxo-4,5-dihydro-1H-pyrazolo[4,3-c]pyridin-1-yl)tetrahydro-2H-pyran-4-carbonitrile]	0.09	–	0.34
CC(C)NC1(C)C(=O)Nc2cc(Nc3nn(C4COCC[C@@H]4C#N)c4cc[nH]c(=O)c34)ccc21 (single isomer, unassigned) [Example 1-100, (3R,4S)-3-[3-({(3R or 3S)-3-methyl-3-[(1-methylethyl)amino]-2-oxo-2,3-dihydro-1H-indol-6-yl}amino)-4-oxo-4,5-dihydro-1H-pyrazolo[4,3-c]pyridin-1-yl] tetrahydro-2H-pyran-4-carbonitrile]	0.06	0.05	–
CC(C)(C)S(=O)(=O)c1ccc(Nc2nn([C@@H]3COCCC[C@H]3C#N)c3cc[nH]c(=O)c23)cc1 (single isomer, unassigned) [Example 1-23, (3S,4R or 3R,4S)-3-(3-{[4-(tert-butylsulfonyl)phenyl]amino}-4-oxo-4,5-dihydro-1H-pyrazolo[4,3-c]pyridin-1-yl)oxepane-4-carbonitrile]	0.25	0.69	–
CC1(C)CC1NC(c1ccc(Nc2nn([C@H]3COCC[C@@H]3C#N)c3cc[nH]c(=O)c23)cc1)C(F)(F)F (single isomer, unassigned) [Example 1-46, (3R,4S)-3-{3-[(4S or 4R-{1S or 1R-[(2,2-dimethylcyclopropyl)amino]-2,2,2-trifluoroethyl}phenyl)amino]-4-oxo-4,5-dihydro-1H-pyrazolo[4,3-c]pyridin-1-yl}tetrahydro-2H-pyran-4-carbonitrile]	0.14	0.21	–

Source: US9957265B2, “N-(2-cyano heterocyclyl) pyrazolo pyridones as janus kinase inhibitors” (Merck Sharp & Dohme Corp., priority 2013, dated 2018)
